Reference: patent publication US6686449B2, “Mutant presenilin 1 polypeptides” (Pharmacia & Upjohn Company, priority 2000, dated 2004)
Where a SMILES comes first, the peptide text is derived from it. The star is where a group is joined. Cbz = O=C(OCc1ccccc1)*

Assays:
Type in all cases: cell-based, human
[1] = tested on: Aβ1-40 production in H125.3-16 (APP-Sw-KK) and APA2 (APP-Sw-KK and PS1-wt) cells; assay: Inhibition assay, stable cell lines: Elisa of Aβ1-40 in conditioned media, PS1wt cell lines; conditions: PS1wt cell lines (H125.3-16, APA2)
Description: (§1) The purpose of the experiment was to assess the effect of compounds known or postulated to have an effect on processing at the proposed gamma cleavage site
(§2) The compounds used were L685,458 (Bachem Cat # H-5106) described by Li et al (15), one we have designated 512088, a fenchylamine sulfonamide inhibitor described by Rishton et al. (16). Z-Leu-Leu-Leu-H, also known as MG132 (Peptide Institute Cat # 3175-v) described by Tajima et al (17), and DMSO (Aldrich Cat # 27,685-5) as a vehicle control. All drugs were resuspended in DMSO at a concentration of 10 mM. Serial dilutions of the drugs were made in cell culture media [DMEM (Gibco cat # 11965-092) supplemented with 10% fetal bovine serum, 1 mM sodium pyruvate, 100 units/ml penicillin G, 100 ug/ml streptomycin sulfate, and 400 ug/ml Geneticin]. Stable cell lines used for drug testing were H125.3-16 (expressing APP-Sw-KK), APA2 (co-expressing APP-Sw-KK and PS1-wt), APB10 (co-expressing APP-Sw-KK and PS1-DTG385), and APD3 (co-expressing APP-Sw-KK and PS1-M146V). […] Conditioned media was harvested 24 hours post-treatment and analyzed in an Elisa assay for Aβ40 or Aβ42 levels (Described below). […]
(§3) Primary Antibody 6E10 was purchased from Senetek PLC (St. Louis, Mo.). […] Plates were read on a Molecular Devices Thermomax Plate Reader with integrated software that calculated the data and analyzed confidence values for the samples. […]

[2] = tested on: Aβ1-40 production in APB10 cells (APP-Sw-KK and PS1-DTG385); assay: Inhibition assay, stable cell lines: Elisa of Aβ1-40 in conditioned media, PS1-DTG385 cell line
Description: as §1, §2, §3

[3] = tested on: Aβ1-42 production in H125.3-16 (APP-Sw-KK) and APA2 (APP-Sw-KK and PS1-wt) cells; assay: Inhibition assay, stable cell lines: Elisa of Aβ1-42 in conditioned media, PS1wt cell lines; conditions: for dose response profile, Aβ1-42 production: PS1wt cell lines (H125.3-16, APA2)
Description: as §1
(§4) The compounds used were L685,458 (Bachem Cat # H-5106) described by Li et al (15), one we have designated 512088, a fenchylamine sulfonamide inhibitor described by Rishton et al. (16). Z-Leu-Leu-Leu-H, also known as MG132 (Peptide Institute Cat # 3175-v) described by Tajima et al (17), and DMSO (Aldrich Cat # 27,685-5) as a vehicle control. All drugs were resuspended in DMSO at a concentration of 10 mM. Serial dilutions of the drugs were made in cell culture media [DMEM (Gibco cat # 11965-092) supplemented with 10% fetal bovine serum, 1 mM sodium pyruvate, 100 units/ml penicillin G, 100 ug/ml streptomycin sulfate, and 400 ug/ml Geneticin]. Stable cell lines used for drug testing were H125.3-16 (expressing APP-Sw-KK), APA2 (co-expressing APP-Sw-KK and PS1-wt), APB10 (co-expressing APP-Sw-KK and PS1-DTG385), and APD3 (co-expressing APP-Sw-KK and PS1-M146V). APP-Sw-KK (An APP construct with a di-lysine motif at the C terminus) has been described in U.S. patent application Ser. No. 09/416901 filed Oct. 13, 1999 and also in WO 00/17369 “Alzheimer's Disease Secretase” published Mar. 30, 2000. Cells were plated at a concentration of 2.5×10^4 or 5.0×10^4 cells per well of a 96 well dish on day 1. Cells were treated with various concentrations of drugs on day 3. Conditioned media was harvested 24 hours post-treatment and analyzed in an Elisa assay for Aβ40 or Aβ42 levels (Described below). An MTS assay (Promega) was performed on the cells 24 hours post-treatment to assess toxicity levels of the drugs.
as §3

[4] = tested on: Aβ1-42 production in APB10 cells (APP-Sw-KK and PS1-DTG385); assay: Inhibition assay, stable cell lines: Elisa of Aβ1-42 in conditioned media, PS1-DTG385 cell line; conditions: for dose response profile, Aβ1-42 production: PS1-DTG385 cell line
Description: as §1, §4
Primary Antibody 6E10 was purchased from Senetek PLC (St. Louis, Mo.). Secondary Antibodies 162, 163, 164 and 165 were purchased from New York Institute for Basic Research (Staten Island, N.Y.). β Bachem (Torrence, Calif.). β-Amyloid 1-40 is cat #ZN571) and 1-42 is cat #ZN327) Neutravidin was purchased from Pierce (Rockford, Ill.). The tetramethylbenzidine color development system was purchased from Kirkigaard & Perry Laboratories Inc. (Gaithersburg, Md.). Plates were read on a Molecular Devices Thermomax Plate Reader with integrated software that calculated the data and analyzed confidence values for the samples.
The coating buffer is 0.1M NaHCO3, pH8.2. Wash buffer is Dulbecco's PBS+0.05% Tween 20 (PBST). Blocking buffer is PBST+1% BSA (make up fresh the day of assay). The substrate is TMB Kirkegaard & Perry Labs. (cat.no.50-76-03). Plates are Costar 96 well half area EIA plates (cat.no.3690). Supplemental BSA is supplied as PBST+10% BSA made fresh on the day of assay.
1. Coat half area 96 well plates (Costar 3690) overnight @ 4° C. with capture antibody 6E10 (50 μl/well) made at […] in coating buffer, pH8.2.
2. Wash plates on an automatic plate washer 1× with wash buffer (175 μl/well).
3. Add 75 ul of blocking buffer to each well. Incubate 1 hr. @room temperature, then wash 3×.
4. Make standard curves from fresh aliquots for each amyloid in blocking buffer as follows:
b. Aβ 1-42 (10 μM. stock in DMSO): Make an initial dilution of […] then follow the instructions for Abeta 1-40 starting at the 1:100 dilution.
5. Add 50 μl of each std. (use duplicates) or sample dilution into the appropriate wells.
Incubate the standards and unknown samples @ room temperature for 3 to 4 hrs. If the samples being assayed contain no protein, 5 μl. of supplemental 10% BSA should be added to the sample wells before adding 50 μl. of sample.
6. […]

[5] = tested on: gamma-secretase (Aβ1-40 and Aβ1-42 production in three stable cell lines); assay: Inhibition assay, stable cell lines: overall potency on Aβ1-40 and Aβ1-42 production; conditions: greater than 512088
Description: as §1
The compounds used were L685,458 (Bachem Cat # H-5106) described by Li et al (15), one we have designated 512088, a fenchylamine sulfonamide inhibitor described by Rishton et al. (16). Z-Leu-Leu-Leu-H, also known as MG132 (Peptide Institute Cat # 3175-v) described by Tajima et al (17), and DMSO (Aldrich Cat # 27,685-5) as a vehicle control. All drugs were resuspended in DMSO at a concentration of 10 mM. Serial dilutions of the drugs were made in cell culture media [DMEM (Gibco cat # 11965-092) supplemented with 10% fetal bovine serum, 1 mM sodium pyruvate, 100 units/ml penicillin G, 100 ug/ml streptomycin sulfate, and 400 ug/ml Geneticin]. Stable cell lines used for drug testing were H125.3-16 (expressing APP-Sw-KK), APA2 (co-expressing APP-Sw-KK and PS1-wt), APB10 (co-expressing APP-Sw-KK and PS1-DTG385), and APD3 (co-expressing APP-Sw-KK and PS1-M146V). APP-Sw-KK (An APP construct with a di-lysine motif at the C terminus) has been described in U.S. patent application Ser. No. 09/416901 filed Oct. 13, 1999 and also in WO 00/17369 “Alzheimer's Disease Secretase” published Mar. 30, 2000. […] Conditioned media was harvested 24 hours post-treatment and analyzed in an Elisa assay for Aβ40 or Aβ42 levels (Described below). […]

Row | Structure (SMILES) | dose response profile, inhibition of Aβ1-40 [1] | dose response profile, inhibition of Aβ1-40 [2] | dose response profile, Aβ1-42 production [3] | dose response profile, Aβ1-42 production [4] | shift of the dose response compared with the PS1wt cell lines ([4]; PS1DTG385 cells) | potency relative to 512088 [5] | peak in the dose response (Aβ1-42) ([3]; PS1wt cell lines, FIG. 8) | potentiation of production of Aβ1-42 relative to Aβ1-40 ([4]; PS1DTG385 cells) | peak in the dose response (Aβ1-42) ([4]; PS1DTG385 cells, FIG. 8)
1 | CC(C)C[C@H](NC(=O)[C@H](Cc1ccccc1)C[C@@H](O)[C@H](Cc1ccccc1)NC(=O)OC(C)(C)C)C(=O)N[C@@H](Cc1ccccc1)C(N)=O [L685,458] | biphasic dose response | linear decrease | biphasic | clearly biphasic | slightly lower potency | approximately 10 fold |  |  | 
2 | CC(C)C[C@@H](C=O)NC(=O)[C@H](CC(C)C)NC(=O)[C@H](CC(C)C)NC(=O)OCc1ccccc1 [MG132, Z-Leu-Leu-Leu-H] (Cbz-Leu-Leu-Leu-aldehyde) | not strongly biphasic in any of the cell lines except the parental PS1wt HEK125.3-16 | not strongly biphasic | strongly biphasic | not strongly biphasic |  |  | 10 µM | does not happen | 0.3 µM
